Results taken from PubChem BioAssay (NCI).
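Five concentrations, 48 hours, 96-well plates. GI50 = concentration required for 50% inhibition of growth. TGI denotes the concentration required for complete inhibition of growth.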

Assays:
Assay in all cases: growth of human tumour cells (NCI), 48 h
786-0 renal = tested on: 786-0 renal
A498 renal = tested on: A498 renal
A549 NSCLC = tested on: A549 NSCLC
ACHN renal = tested on: ACHN renal
BT-549 breast = tested on: BT-549 breast
CAKI-1 renal = tested on: CAKI-1 renal
CCRF-CEM leukemia = tested on: CCRF-CEM leukemia
COLO 205 colon = tested on: COLO 205 colon
DU-145 prostate = tested on: DU-145 prostate
EKVX NSCLC = tested on: EKVX NSCLC
HCC-2998 colon = tested on: HCC-2998 colon
HCT-116 colon = tested on: HCT-116 colon
HCT-15 colon = tested on: HCT-15 colon
HL-60(TB) leukemia = tested on: HL-60(TB) leukemia
HOP-62 NSCLC = tested on: HOP-62 NSCLC
HOP-92 NSCLC = tested on: HOP-92 NSCLC
HS 578T breast = tested on: HS 578T breast
HT29 colon = tested on: HT29 colon
IGROV1 ovarian = tested on: IGROV1 ovarian
K-562 leukemia = tested on: K-562 leukemia
KM12 colon = tested on: KM12 colon
LOX IMVI melanoma = tested on: LOX IMVI melanoma
M14 melanoma = tested on: M14 melanoma
MALME-3M melanoma = tested on: MALME-3M melanoma
MCF7 breast = tested on: MCF7 breast
MDA-MB-231 breast = tested on: MDA-MB-231 breast
MDA-MB-435 = tested on: MDA-MB-435
MOLT-4 leukemia = tested on: MOLT-4 leukemia
NCI-H226 lung = tested on: NCI-H226 lung
NCI-H23 lung = tested on: NCI-H23 lung
NCI-H460 lung = tested on: NCI-H460 lung
NCI-H522 lung = tested on: NCI-H522 lung
NCI/ADR-RES ovarian = tested on: NCI/ADR-RES ovarian
OVCAR-3 ovarian = tested on: OVCAR-3 ovarian
OVCAR-4 ovarian = tested on: OVCAR-4 ovarian
OVCAR-5 ovarian = tested on: OVCAR-5 ovarian
OVCAR-8 ovarian = tested on: OVCAR-8 ovarian
PC-3 prostate = tested on: PC-3 prostate
RPMI-8226 leukemia = tested on: RPMI-8226 leukemia
RXF 393 renal = tested on: RXF 393 renal
SF-268 CNS = tested on: SF-268 CNS
SF-295 CNS = tested on: SF-295 CNS
SF-539 CNS = tested on: SF-539 CNS
SK-MEL-2 melanoma = tested on: SK-MEL-2 melanoma
SK-MEL-28 melanoma = tested on: SK-MEL-28 melanoma
SK-MEL-5 melanoma = tested on: SK-MEL-5 melanoma
SK-OV-3 ovarian = tested on: SK-OV-3 ovarian
SN12C renal = tested on: SN12C renal
SNB-19 CNS = tested on: SNB-19 CNS
SNB-75 CNS = tested on: SNB-75 CNS
SR leukemia = tested on: SR leukemia
SW-620 colon = tested on: SW-620 colon
T-47D breast = tested on: T-47D breast
TK-10 renal = tested on: TK-10 renal
U251 CNS = tested on: U251 CNS
UACC-257 melanoma = tested on: UACC-257 melanoma
UACC-62 melanoma = tested on: UACC-62 melanoma
UO-31 renal = tested on: UO-31 renal

N#C/C(=C\c1ccccn1)c1nc2ccccc2o1
GI50 (786-0 renal): 35.3 µM
TGI (786-0 renal): > 100 µM
GI50 (A498 renal): 30.4 µM
TGI (A498 renal): 99.2 µM
GI50 (A549 NSCLC): 36.5 µM
TGI (A549 NSCLC): > 100 µM
GI50 (ACHN renal): 19.2 µM
TGI (ACHN renal): 46.6 µM
GI50 (BT-549 breast): 17.3 µM
TGI (BT-549 breast): 36.1 µM
GI50 (CAKI-1 renal): 35.1 µM
TGI (CAKI-1 renal): > 100 µM
GI50 (CCRF-CEM leukemia): 1.4 µM
TGI (CCRF-CEM leukemia): 69.6 µM
GI50 (COLO 205 colon): 44.9 µM
TGI (COLO 205 colon): > 100 µM
GI50 (DU-145 prostate): 34.4 µM
TGI (DU-145 prostate): > 100 µM
GI50 (EKVX NSCLC): 24.2 µM
TGI (EKVX NSCLC): > 100 µM
GI50 (HCC-2998 colon): 25.1 µM
TGI (HCC-2998 colon): 50.2 µM
GI50 (HCT-116 colon): 18.9 µM
TGI (HCT-116 colon): 40.3 µM
GI50 (HCT-15 colon): 20.7 µM
TGI (HCT-15 colon): 55.8 µM
GI50 (HL-60(TB) leukemia): 15.3 µM
TGI (HL-60(TB) leukemia): 76.2 µM
GI50 (HOP-62 NSCLC): > 100 µM
TGI (HOP-62 NSCLC): > 100 µM
GI50 (HOP-92 NSCLC): 0.0586 µM
TGI (HOP-92 NSCLC): 20.7 µM
GI50 (HS 578T breast): 35.1 µM
TGI (HS 578T breast): > 100 µM
GI50 (HT29 colon): 30.6 µM
TGI (HT29 colon): 95.2 µM
GI50 (IGROV1 ovarian): 18.4 µM
TGI (IGROV1 ovarian): > 100 µM
GI50 (K-562 leukemia): 28.6 µM
TGI (K-562 leukemia): > 100 µM
GI50 (KM12 colon): 26.8 µM
TGI (KM12 colon): > 100 µM
GI50 (LOX IMVI melanoma): 17 µM
TGI (LOX IMVI melanoma): 38.1 µM
GI50 (M14 melanoma): 30.7 µM
TGI (M14 melanoma): > 100 µM
GI50 (MALME-3M melanoma): 25.2 µM
TGI (MALME-3M melanoma): > 100 µM
GI50 (MCF7 breast): 16 µM
TGI (MCF7 breast): > 100 µM
GI50 (MDA-MB-231 breast): 27.9 µM
TGI (MDA-MB-231 breast): > 100 µM
GI50 (MDA-MB-435): 34.6 µM
TGI (MDA-MB-435): > 100 µM
GI50 (MOLT-4 leukemia): 24.6 µM
TGI (MOLT-4 leukemia): 82.6 µM
GI50 (NCI-H226 lung): 39.3 µM
TGI (NCI-H226 lung): > 100 µM
GI50 (NCI-H23 lung): 33.9 µM
TGI (NCI-H23 lung): > 100 µM
GI50 (NCI-H460 lung): 31.7 µM
TGI (NCI-H460 lung): > 100 µM
GI50 (NCI-H522 lung): 16.6 µM
TGI (NCI-H522 lung): 37 µM
GI50 (NCI/ADR-RES ovarian): 33.4 µM
TGI (NCI/ADR-RES ovarian): > 100 µM
GI50 (OVCAR-3 ovarian): 29.7 µM
TGI (OVCAR-3 ovarian): > 100 µM
GI50 (OVCAR-4 ovarian): 17.3 µM
TGI (OVCAR-4 ovarian): 34.2 µM
GI50 (OVCAR-5 ovarian): 31.9 µM
TGI (OVCAR-5 ovarian): > 100 µM
GI50 (OVCAR-8 ovarian): 36.2 µM
TGI (OVCAR-8 ovarian): > 100 µM
GI50 (PC-3 prostate): 17.6 µM
TGI (PC-3 prostate): 50.5 µM
GI50 (RPMI-8226 leukemia): 18.5 µM
TGI (RPMI-8226 leukemia): 52.4 µM
GI50 (RXF 393 renal): 28.3 µM
TGI (RXF 393 renal): 82.2 µM
GI50 (SF-268 CNS): 31.3 µM
TGI (SF-268 CNS): > 100 µM
GI50 (SF-295 CNS): 84.2 µM
TGI (SF-295 CNS): > 100 µM
GI50 (SF-539 CNS): 23.8 µM
TGI (SF-539 CNS): 66.5 µM
GI50 (SK-MEL-2 melanoma): 29.1 µM
TGI (SK-MEL-2 melanoma): > 100 µM
GI50 (SK-MEL-28 melanoma): 20.7 µM
TGI (SK-MEL-28 melanoma): 45 µM
GI50 (SK-MEL-5 melanoma): 18 µM
TGI (SK-MEL-5 melanoma): 43 µM
GI50 (SK-OV-3 ovarian): 45.9 µM
TGI (SK-OV-3 ovarian): > 100 µM
GI50 (SN12C renal): 32.5 µM
TGI (SN12C renal): > 100 µM
GI50 (SNB-19 CNS): 17 µM
TGI (SNB-19 CNS): 40 µM
GI50 (SNB-75 CNS): 21.8 µM
TGI (SNB-75 CNS): > 100 µM
GI50 (SR leukemia): 20 µM
TGI (SR leukemia): 78.4 µM
GI50 (SW-620 colon): 17.5 µM
TGI (SW-620 colon): 37.1 µM
GI50 (T-47D breast): 14.5 µM
TGI (T-47D breast): 34.3 µM
GI50 (TK-10 renal): 50.3 µM
TGI (TK-10 renal): > 100 µM
GI50 (U251 CNS): 21.5 µM
TGI (U251 CNS): 49.8 µM
GI50 (UACC-257 melanoma): 35.8 µM
TGI (UACC-257 melanoma): > 100 µM
GI50 (UACC-62 melanoma): 21.3 µM
TGI (UACC-62 melanoma): 46.2 µM
GI50 (UO-31 renal): 18.8 µM
TGI (UO-31 renal): 59.7 µM
